How the values were obtained:
[1] = test system: U-937 cells (human lymphoma); assay: 72 Hour IC50 cell death assay (sulforhodamine B); assay type: cell-based; settings: read-out: U-937 72 h IC50 (μM), Table 1, U-937 cells, 72 h
Experimental: After the synthesis was complete, the biological activity of the compounds was evaluated.
U-937 human lymphoma cells were plated into the wells of 96 well plate at a density of 15,000 cells per well in 99 μL of RPMI 1640 growth media with 10% FBS and 1% pen-strep. To each well was added 1 μL of compound stock solutions in DMSO at varying concentrations such that the cells were treated with concentrations between 0 μM and 100 μM compound. Each concentration was tested in quintuplicate per plate. In each plate 5 wells received 20 μM doxorubicin as a positive death control and 5 wells received 1 μL of DMSO as a negative control.
After the 72 hour incubation period, the plates were analyzed using a Sulforhodamine B assay (Vichai and Kirtikara, Nat Protoc 2006, 1, 1112-1116). Specifically, to each well of the plate 25 μL of a 50% (w/v) solution of trichloroacetic acid in H2O was added and the plates were incubated for 4 hours at 4° C. The plates were then washed gently with water five times. The plates were allowed to air dry after which 100 μL of a 0.057% (w/v) Sulforhodamine B in a 1% (v/v) acetic acid solution was added to each well for 30 minutes at room temperature. The plates were gently washed 5 times with 1% (v/v) acetic acid and air dried. 200 μL of 10 mM Tris base (pH 10.4) was added to each well and the plates were placed on an orbital shaker for thirty minutes. The level of SRB was quantified fluorometrically at excitation and emission wavelengths 488 and 585 nm, respectively, on a Molecular Devices plate reader and the percent cell death calculated and normalized to the positive control (100% cell death) and the negative control (0% cell death). The percent cell death was averaged for each compound concentration and plotted as a function of compound concentration. The data were fit to a logistical dose response curve using Table curve 2D and the IC50 value was calculated. The experiment was repeated three times and the average of the calculated IC50 values was reported. The standard error of the mean (SEM) was determined and reported for the triplicate experiments.

[2] = Liver microsome stability assay; assay type: in vitro ADME; settings: rat liver microsomes, 10 μM, LC/MS
Experimental: FIG. 4. Liver Microsome Stability Assay. Compounds (10 μM) incubated with liver microsomes for 3 h and quenched with MeCN containing internal standard, analyzed by LC/MS (280 nm). Next, the metabolic stability of the compounds was evaluated in rat liver microsomes. The compounds were evaluated for 3 hours at 10 μM, and the metabolites were observed by LC/MS.

mice = assay: Assessment of toxicity in vivo; settings: mice; scale 0 to 3, or time of death
Text: The level of toxicity was rated on a scale of 0 (no observable adverse effect) to 3 (severe toxicity, almost fatal).

SMILES: C=CCc1cccc(/C=N/NC(=O)CN2CCN(C(=O)c3ccc(F)cc3)CC2)c1O [Compound 7, N′-(3-allyl-2-hydroxybenzylidene)-2-(4-(4-fluorobenzoyl)piperazin-1-yl)acetohydrazide]
- IC50 [1]: 10.2 ± 1.7 µM
- RLM 3 h % Stability [2]: 86 ± 2%
- Mouse Toxicity (mice): 2

SMILES: CCCc1cccc(/C=N/NC(=O)CN2CCN(Cc3ccccc3)CC2)c1O [Compound 10, 2-(4-benzylpiperazin-1-yl)-N′-(2-hydroxy-3-propylbenzylidene)acetohydrazide]
- IC50 [1]: 9.6 ± 2.1 µM
- RLM 3 h % Stability [2]: 30 ± 1%
- Mouse Toxicity (mice): 2

SMILES: CCCc1cccc(/C=N/NC(=O)CN2CCN(Cc3ccc(F)cc3)CC2)c1O [Compound 15, 2-(4-(4-fluorobenzyl)piperazin-1-yl)-N′-(2-hydroxy-3-propylbenzylidene)acetohydrazide]
- IC50 [1]: 10 ± 1.7 µM
- RLM 3 h % Stability [2]: 24 ± 2%
- Mouse Toxicity (mice): death <24 h (the mice died either within 24 hours of treatment)

SMILES: O=C(CN1CCN(Cc2ccccc2)CC1)N/N=C/c1cc(F)ccc1O [Compound 19, 2-(4-benzylpiperazin-1-yl)-N′-(5-fluoro-2-hydroxybenzylidene)acetohydrazide]
- IC50 [1]: 17 ± 1.4 µM
- RLM 3 h % Stability [2]: 64 ± 4%
- Mouse Toxicity (mice): 3

SMILES: NS(=O)(=O)c1ccc(CN2CCN(CC(=O)N/N=C/c3cc(F)ccc3O)CC2)cc1 [Compound 20, 4-((4-(2-(2-(5-fluoro-2-hydroxybenzylidene)hydrazinyl)-2-oxoethyl)piperazin-1-yl)methyl)benzenesulfonamide]
- IC50 [1]: 19.6 ± 3.8 µM
- RLM 3 h % Stability [2]: 85 ± 6%
- Mouse Toxicity (mice): death >72 h (greater than 72 hours post-treatment)

SMILES: N#Cc1ccc(CN2CCN(CC(=O)N/N=C/c3cc(F)ccc3O)CC2)cc1 [Compound 22, 2-(4-(4-cyanobenzyl)piperazin-1-yl)-N′-(5-fluoro-2-hydroxybenzylidene)acetohydrazide]
- IC50 [1]: 13.5 ± 1 µM
- RLM 3 h % Stability [2]: 79 ± 4%
- Mouse Toxicity (mice): death <24 h (the mice died either within 24 hours of treatment)

SMILES: O=C(CN1CCN(Cc2ccc(F)cc2)CC1)N/N=C/c1cc(F)ccc1O [Compound 24, N′-(5-fluoro-2-hydroxybenzylidene)-2-(4-(4-fluorobenzyl)piperazin-1-yl)acetohydrazide]
- IC50 [1]: 11.7 ± 1.4 µM
- RLM 3 h % Stability [2]: 62 ± 2%
- Mouse Toxicity (mice): 3

SMILES: O=C(CN1CCN(Cc2ccc(C(F)(F)F)cc2)CC1)N/N=C/c1cc(F)ccc1O [Compound 26, N′-(5-fluoro-2-hydroxybenzylidene)-2-(4-(4-(trifluoromethyl)benzyl)piperazin-1-yl)acetohydrazide]
- IC50 [1]: 4.7 ± 0.3 µM
- RLM 3 h % Stability [2]: 30 ± 5%
- Mouse Toxicity (mice): 3

SMILES: O=C(CN1CCN(C(=O)c2ccc(C(F)(F)F)cc2)CC1)N/N=C/c1cc(F)ccc1O [Compound 27, N′-(5-fluoro-2-hydroxybenzylidene)-2-(4-(4-(trifluoromethyl)benzoyl)piperazin-1-yl)acetohydrazide]
- IC50 [1]: 8.7 ± 0.5 µM
- RLM 3 h % Stability [2]: 87 ± 3%
- Mouse Toxicity (mice): 2

SMILES: C=CCc1cc(F)cc(/C=N/NC(=O)CN2CCN(Cc3ccccc3)CC2)c1O [Compound 28, N′-(3-allyl-5-fluoro-2-hydroxybenzylidene)-2-(4-benzylpiperazin-1-yl)acetohydrazide]
- IC50 [1]: 9.5 ± 0.9 µM
- RLM 3 h % Stability [2]: 56 ± 1%
- Mouse Toxicity (mice): death <24 h (the mice died either within 24 hours of treatment)

SMILES: C=CCc1cc(F)cc(/C=N/NC(=O)CN2CCN(C(=O)c3ccccc3)CC2)c1O [Compound 30, N′-(3-allyl-5-fluoro-2-hydroxybenzylidene)-2-(4-benzoylpiperazin-1-yl)acetohydrazide]
- IC50 [1]: 8.6 ± 2 µM
- RLM 3 h % Stability [2]: 93 ± 7%
- Mouse Toxicity (mice): 2

SMILES: C=CCc1cc(F)cc(/C=N/NC(=O)CN2CCN(C(=O)c3ccc(F)cc3)CC2)c1O [Compound 34, N′-(3-allyl-5-fluoro-2-hydroxybenzylidene)-2-(4-(4-fluorobenzoyl)piperazin-1-yl)acetohydrazide]
- IC50 [1]: 8.5 ± 1.4 µM
- RLM 3 h % Stability [2]: 92 ± 3%
- Mouse Toxicity (mice): 3

SMILES: CCCc1cc(F)cc(/C=N/NC(=O)CN2CCN(Cc3ccccc3)CC2)c1O [Compound 37, 2-(4-benzylpiperazin-1-yl)-N′-(5-fluoro-2-hydroxy-3-propylbenzylidene)acetohydrazide]
- IC50 [1]: 8.9 ± 1.2 µM
- RLM 3 h % Stability [2]: 49 ± 6%
- Mouse Toxicity (mice): death <24 h (the mice died either within 24 hours of treatment)

SMILES: CCCc1cc(F)cc(/C=N/NC(=O)CN2CCN(C(=O)c3ccccc3)CC2)c1O [Compound 39, 2-(4-benzoylpiperazin-1-yl)-N′-(5-fluoro-2-hydroxy-3-propylbenzylidene)acetohydrazide]
- IC50 [1]: 12.3 ± 1 µM
- RLM 3 h % Stability [2]: 86 ± 5%
- Mouse Toxicity (mice): 2

SMILES: CCCc1cc(F)cc(/C=N/NC(=O)CN2CCN(C(=O)c3ccc(F)cc3)CC2)c1O [Compound 43, N′-(5-fluoro-2-hydroxy-3-propylbenzylidene)-2-(4-(4-fluorobenzoyl)piperazin-1-yl)acetohydrazide]
- IC50 [1]: 7.5 ± 1.4 µM
- RLM 3 h % Stability [2]: 67 ± 3%
- Mouse Toxicity (mice): 3
